Assay results as given in patent US9624211B2, “Anti-cancer compounds” (Board of Regents, The University of Texas System, priority 2013, dated 2017).

Key:
Assay type in all cases: cell-based
ERK activation = ERK activation after EGF, immunoblotting
prostate cancer cells = test: Cell apoptosis assay (Annexin-V, flow cytometry)
Procedure: Prostate cancer cells were treated with vehicle (DMSO) or Skp2 inhibitor for 3 days, and collected and labeled with Annexin-V-FITC, followed by flow cytometry analysis. The Annexin-V+ and […] cells indicates apoptotic cell population (Q4).

[1] = tested on: normal prostate epithelial PNT1A cells; test: Cell survival assay, PNT1A
Procedure: For Skp2 inhibitor administration, 5-10×10^3 of cells with were seeded in 12 wells in triplicate, 24 h later, treated with compound #25 (refreshed every two days). Four days later, cells were harvested, stained with trypan blue, and viable cells were counted directly under the microscope using hemocytometer. For doxorubicin treatment, 8×10^3 of PC3 cells with were seeded in 12 wells in triplicate, 24 h later, treated with various dose of compound #25 in the presence or absence of 10 nM doxorubicin or 25 ng/ml cyclophosphamide for four and three days, respectively (refreshed every two days). After treatment, cells were harvested, stained with trypan blue, and viable cells were counted directly under the microscope using hemocytometer. Cellular senescence was determined by assessing SA-b-gal activity using senescence detection kit according to manufacturers' standard procedures (Calbiochem).

CCc1cc2c(=O)c(-c3nc4ccccc4s3)coc2c(CN2CCCCC2)c1O [compound #25, 3-(1,3-benzothiazol-2-yl)-6-ethyl-7-hydroxy-8-(1-piperidinylmethyl)-4H-chromen-4-one]
ERK activation (ERK activation): no noticeable impact
cell apoptosis (prostate cancer cells): elicited cell apoptosis
cell viability [1]: only slightly affected
